# Columns and labels:
# BTK = BTK (Homo sapiens, UniProt Q06187); experiment: Assay to determine BTK inactivation rate in human whole blood (ELISA of unoccupied BTK); assay type: cell-based; parameters: Human whole blood is obtained from StemExpress; tissue StemExpress; host or cells: human whole blood; conditions: 37° C., 5, 15, 30, 60 minutes; for kinact/KI: read-out: BTK hWB Kinact/Ki
# Experimental: Human Whole Blood Compound Treatment and Lysis
# Human whole blood is obtained from StemExpress and kept at ambient temperature until the time of the experiment. […] This is prepared fresh each experimental day. […] Compounds are reconstituted to stocks of 10 mM and are diluted in two-fold serial dilutions to generate an 8-point curve in DMSO, with the last point being DMSO only, creating a 100× dilution series. A working 10× dilution series is created using 1.0 μL of the prepared DMSO titration, 100×, into […] 1×PBS in order to keep the DMSO constant. The human whole blood is added in the volume of 225 μL per well in a new 96w v-bottom plate, where one column of eight wells is sufficient for testing one compound. For compound treatment, 25 μL of 10× dilution series in PBS is added to the 225 μL whole blood, followed by briefly pipetting up and down twice. The plates are covered with lids and incubated at 37° C. for 5, 15, 30, 60 minutes. At each timepoint, 30 μL of treated blood is pulled from each column and added to preloaded collection plates that contain 30 μL of supplemented lysis buffer and mixed briefly. The collected and lysed samples shake on rotator for 60 minutes at room temperature. These samples are used fresh for detection via ELISA, and remaining sample is frozen at −80° C. if a repeat is necessary.
# ELISA: Determining Amount of Unoccupied BTK
# All streptavidin pre-coated plates (R&D Systems, #CP004) are brought to room temperature while samples are lysing. Assay Buffer 1, 1×PBS+0.05% Tween 20+1% BSA is prepared and stored at 4° C. when not in use. Using this Assay Buffer, assay buffer+1× protease/phosphatase inhibitor cocktail (PICs) is prepared in the amount needed for all samples. Assay Buffer+PICs in the volume of 90 μL/well is added to the ELISA plate. Lysed blood sample (10 μL) is added to the ELISA plate. BTK recombinant protein dilutions are prepared in assay buffer+PICS for use as a μM). The standard is loaded into the ELISA plate at 100 μL/well, in duplicate. These samples and standards remain in the plate, sealed, overnight at 4° C. The following day, the plate is washed four times with 1× Wash Buffer (1×PBS+0.05% Tween 20) using a plate washer. The plate is inverted to expel all fluid each time and blotted on clean paper towels to remove remaining liquid. Assay Buffer 2 is prepared (1×PBS+0.05% Tween 20+0.05% BSA) and kept at 4° C. when not in use. […] Diluted a-BTK antibody is added at 100 μl/well. The plate is covered with adhesive film and incubated for 90 minutes at room temperature. The plate is washed four times with 1× Wash Buffer (1×PBS+0.05% Tween 20) using a plate washer. The plate is inverted to expel all fluid each time and blotted on clean paper towels to remove remaining liquid. […] The diluted antibody is added at 100 μl/well. The plate is covered with adhesive film and incubated for one hour at room temperature. The plate is washed four times with 1× Wash Buffer using a plate washer. The plate is inverted to expel all fluid each time and blotted on clean paper towels to remove remaining liquid. […] The plate is incubated at room temperature in the dark for −5-10 minutes. The reaction is stopped by adding 50 μl/well 2N sulfuric acid (H2SO4) (R&D Systems, #DY994). The plate is read in a plate reader at the wavelengths […] and 570 nm (correction wavelength). Using Graphpad Prism, an XY table+graph is created, listing 0-60 minutes as X axis and concentration as Y axis. A One Phase Decay model fit is applied to the data. Checking Results table, the K values are obtained and new XY table+graph are created. Concentration is assigned to the X axis and K values from first analysis are entered. The Michaelis-Menten equation is applied to the data.
# [1] = test system: BTK Activity in RAMOS B Cells; experiment: Assay to determine BTK activity in RAMOS B cells (anti-IgM, FLIPR Calcium 6); assay type: cell-based; conditions: EC80 anti-IgM, FLIPR calcium read
# Procedure, shortened: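 Ramos B cells were loaded with Calcium 6 dye containing 5 mM probenecid (2 h at 37 °C, then 15 min at 25 °C) and exposed to compound for 60 min at 25 °C. Anti-IgM was then added from a 4×EC80 stock, and calcium flux was recorded by FLIPR for 160 s; IC50 was derived.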
# BTK, sequence (Q06187 whole entry): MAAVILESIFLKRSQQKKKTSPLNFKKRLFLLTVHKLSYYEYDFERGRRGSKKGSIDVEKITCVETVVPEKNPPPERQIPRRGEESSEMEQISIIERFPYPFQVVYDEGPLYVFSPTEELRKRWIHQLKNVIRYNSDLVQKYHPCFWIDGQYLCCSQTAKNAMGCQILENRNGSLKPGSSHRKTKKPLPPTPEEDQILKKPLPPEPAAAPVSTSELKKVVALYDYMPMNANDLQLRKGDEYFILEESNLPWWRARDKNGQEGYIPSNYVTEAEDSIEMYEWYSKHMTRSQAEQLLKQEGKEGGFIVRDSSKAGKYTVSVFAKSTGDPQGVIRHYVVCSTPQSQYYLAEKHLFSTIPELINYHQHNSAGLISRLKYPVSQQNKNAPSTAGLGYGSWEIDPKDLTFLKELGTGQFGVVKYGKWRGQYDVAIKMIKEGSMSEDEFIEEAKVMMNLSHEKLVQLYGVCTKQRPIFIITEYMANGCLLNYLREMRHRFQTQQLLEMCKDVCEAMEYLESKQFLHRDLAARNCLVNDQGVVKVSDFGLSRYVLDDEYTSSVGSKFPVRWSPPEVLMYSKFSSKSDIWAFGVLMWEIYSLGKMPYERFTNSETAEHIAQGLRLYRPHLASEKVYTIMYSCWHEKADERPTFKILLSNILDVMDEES
Structure (SMILES),kinact/KI (BTK),"IC50 ([1]; Homo sapiens, Ramos)",IC50 [1],BTK hWB Kinact/Ki (BTK)
"C=CC(=O)N1CCC2CCN(c3c(F)cc(C(N)=O)c4[nH]c(C)c(Cl)c34)CC21 (racemic) [Compound 29, 4-(1-acryloyloctahydro-6H-pyrrolo[2,3-c]pyridin-6-yl)-3-chloro-5-fluoro-2-methyl-1H-indole-7-carboxamide]",1670 to 16700 M⁻¹ s⁻¹,10 to 100 nM,,
"C=CC(=O)N1CCC=C(c2c(F)cc(C(N)=O)c3[nH]c(C)c(Cl)c23)C1 [Compound 1, 4-(1-acryloyl-1,2,5,6-tetrahydropyridin-3-yl)-3-chloro-5-fluoro-2-methyl-1H-indole-7-carboxamide]",> 16700 M⁻¹ s⁻¹,< 10 nM,,
"C=CC(=O)N1CCC[C@@H](c2c(F)cc(C(N)=O)c3[nH]c(C)c(Cl)c23)C1 [Compound 2a, (S)-4-(1-acryloylpiperidin-3-yl)-3-chloro-5-fluoro-2-methyl-1H-indole-7-carboxamide]",> 16700 M⁻¹ s⁻¹,< 10 nM,,
"C=CC(=O)N1CCC[C@@H](c2c(F)c(F)c(C(N)=O)c3[nH]c(C)c(Cl)c23)C1 [Compound 16, (S)-4-(1-acryloylpiperidin-3-yl)-3-chloro-5,6-difluoro-2-methyl-1H-indole-7-carboxamide]",> 16700 M⁻¹ s⁻¹,< 10 nM,,
"CC#CC(=O)N[C@H]1C[C@@H](F)CN(c2c(F)cc(C(N)=O)c3[nH]c(C)c(Cl)c23)C1 [Compound 27, 4-((3S,5R)-3-(but-2-ynamido)-5-fluoropiperidin-1-yl)-3-chloro-5-fluoro-2-methyl-1H-indole-7-carboxamide]",1670 to 16700 M⁻¹ s⁻¹,< 10 nM,,
"CC#CC(=O)N[C@H]1C[C@@H](F)CN(c2c(F)cc(C(N)=O)c3[nH]c(C)c(C)c23)C1 [Compound 33, 4-((3S,5R)-3-(but-2-ynamido)-5-fluoropiperidin-1-yl)-5-fluoro-2,3-dimethyl-1H-indole-7-carboxamide]",> 16700 M⁻¹ s⁻¹,< 10 nM,,
"CC#CC(=O)N[C@H]1C[C@H](F)CN(c2c(F)cc(C(N)=O)c3[nH]c(C)c(C)c23)C1 [Compound 35, 4-((3S,5S)-3-(but-2-ynamido)-5-fluoropiperidin-1-yl)-5-fluoro-2,3-dimethyl-1H-indole-7-carboxamide]",> 16700 M⁻¹ s⁻¹,< 10 nM,,
"CC#CC(=O)N1CCCC2CN(c3c(F)cc(C(N)=O)c4[nH]c(C)c(Cl)c34)CC21 (stereo not shown) [Compound 40, 4-(1-(but-2-ynoyl)octahydro-6H-pyrrolo[3,4-b]pyridin-6-yl)-3-chloro-5-fluoro-2-methyl-1H-indole-7-carboxamide]",< 1670 M⁻¹ s⁻¹,10 to 100 nM,,

# Results, then the compound that gave them:
kinact/KI (BTK),"IC50 ([1]; Homo sapiens, Ramos)",IC50 [1],BTK hWB Kinact/Ki (BTK),Structure (SMILES)
1670 to 16700 M⁻¹ s⁻¹,10 to 100 nM,,,"C=CC(=O)N1CCc2c(-c3c(F)cc(C(N)=O)c4[nH]c(C)c(Cl)c34)cccc2C1C (racemic) [Compound 22a, 4-(2-acryloyl-1-methyl-1,2,3,4-tetrahydroisoquinolin-5-yl)-3-chloro-5-fluoro-2-methyl-1H-indole-7-carboxamide]"
1670 to 16700 M⁻¹ s⁻¹,,< 10 nM,,"C=CC(=O)N1CCc2c(cccc2-c2c(F)cc(C(N)=O)c3[nH]c(C)c(Cl)c23)C1 (single isomer, unassigned) [Compound 20b]"
< 1670 M⁻¹ s⁻¹,10 to 100 nM,,,"C=CC(=O)N1CCC2CCN(c3c(F)cc(C(N)=O)c4[nH]c(C)c(Cl)c34)CC21 (single isomer, unassigned) [Compound 29a, 4-(1-acryloyloctahydro-6H-pyrrolo[2,3-c]pyridin-6-yl)-3-chloro-5-fluoro-2-methyl-1H-indole-7-carboxamide]"
,,10 to 100 nM,C (a Kinact/Ki<1×10^−4 nM^−1 min^−1),"C=CC(=O)N1CCC2CCN(c3c(F)cc(C(N)=O)c4[nH]c(C)c(C)c34)CC21 (single isomer, unassigned) [Compound 32b, 4-(1-acryloyloctahydro-6H-pyrrolo[2,3-c]pyridin-6-yl)-5-fluoro-2,3-dimethyl-1H-indole-7-carboxamide]"
> 16700 M⁻¹ s⁻¹,< 10 nM,,,"C=CC(=O)N1CCC[C@H](c2c(F)c(F)c(C(N)=O)c3[nH]c(C)c(F)c23)C1 [Compound 6a, (R)-4-(1-acryloylpiperidin-3-yl)-3,5,6-trifluoro-2-methyl-1H-indole-7-carboxamide]"
> 16700 M⁻¹ s⁻¹,< 10 nM,,,"C=CC(=O)N1CCC[C@@H](c2c(F)c(F)c(C(N)=O)c3[nH]c(C)c(F)c23)C1 [Compound 6b, (S)-4-(1-acryloylpiperidin-3-yl)-3,5,6-trifluoro-2-methyl-1H-indole-7-carboxamide]"

# Reference: patent US12448363B2, “Kinase inhibitors” (Vidya Therapeutics, Inc., priority 2020, dated 2025)
